Results on nine compounds are retold here after patent EP0636368B1, “The use of 2- phenylmethylene -1- 3'-(amino)-2'-(hydroxy)--propoxy-imino -cyclohexane derivatives” (EGIS GYOGYSZERGYAR RT., priority 1993, dated 1995).

For orientation: ED50 means the dose that gives a 50% effect, or the effect in half of the subjects. A word on the LD50: it is the dose at which mortality reaches 50%. By MIC is commonly meant the least concentration at which growth counts as inhibited. A higher MIC goes with a need for much substance.

In data set [1] the test system is lesions of gastric mucosa. Briefly: Test with ethanol containing hydrochloric acid (erosion frequency and erosion index). The data set is classed as in vivo, Rats. As to conditions: for Inhibition of the erosion frequency Relative activity / Inhibition of the erosion index Relative activity: ED50 of cetraxate divided by ED50 of the compound tested; for ED50: Rattus norvegicus, po, read-out: Inhibition of the erosion frequency ED50 p.o.; for ED50 / Inhibition of the erosion index ED50 p.o.: rats, peroral, conc. hydrochloric acid/absolute ethanol 1 to 50. The source says: The principle of the method consists in that, simultaneously with the administration of absolute ethanol, hydrochloric acid is introduced to the stomach. Thus, the influence on systemic gastric acid inhibition action can be eliminated by the presence of the exogenous acid.
The reagent used in this test was a mixture of concentrated aqueous hydrochloric acid and absolute ethanol in a weight ratio of 1 to 50 in accordance with the dilution ratio used by Yamazaki et al. (Japan J. Pharmacol., 55 [1991], 415 to 424). In other respects, the experiment was performed as described under test 2.1., however, in addition to the erosion index calculated from the lenghts of the erosions in mm, the ratio of occurence of animals showing at least one gastric erosion within a test group, i.e. the erosion frequency, was also evaluated.

A short description of data set [2]: Acute toxicity (LD50, Litchfield and Wilcoxon). Conditions: mouse, in vivo, po; NMRI mice of both sexes, peroral, 7 days observation; "higher than" = highest dose administered without any death. On the procedure:
The acute toxicity was determined on NMRI strain mice of both sexes weighing 20 to 25 g each by using 6 animals for each dose. The compounds to be tested were administered perorally in a volume of 20 ml/kg, the highest dose applied was 1 000 mg/kg. After the administration the animals were kept under usual laboratory conditions for 7 days. The LD50 values were calculated according to the method of Litchfield and Wilcoxon (J. Pharmacol. Exp. Ther., 96 [1949], 99).
The data given as "higher than" a certain value mean the highest dose administered without noting any death of animals.

Data set [3] concerns lesions of gastric mucosa. Description: Test with absolute ethanol (gastric mucosa lesions, erosion index). The data set is classed as in vivo, Rats. Conditions: for Relative activity related to the inhibition of the free acid: gastroprotective action (absolute ethanol test) compared to the gastric acid inhibiting activity (Shay test, rats, p.o.); for activity in the test with absolute ethanol: result in words. The procedure:
Rats of both sexes weighing 200 to 250 g, each previously starved for 24 hours, were used in this experiment. […] After one hour following the administration, the animals were killed by an overdose of ether, the stomach was excised and the alterations of gastric mucosa were examined. The lengths of the erosions were measured and summarized (expressed in mm) for each stomach to obtain the erosion index by calculating the average value of the group. The inhibition was calculated in percentage by comparing the value of the group treated with ethanol to that of the control group treated only with the vehicle. Various doses of the compounds to be tested were administered, perorally, in a volume of 5 ml/kg using a pretreatment time of 60 minutes. Eight rats were used for each dose. (A. Robert, Gastroenterology 77 [1979], 761 to 767). In the test with absolute ethanol which is useful for showing the gastroprotective activity, as to the effective dose range, a sharp difference can be made between the cytoprotective effect and the gastric acid inhibition, the latter resulting in the inhibition of the gastric erosion.

The subject of the next data set is gastric acid secretion. Briefly: Effect on the gastric acid secretion (Shay's method, pylorus ligation). The data set is classed as in vivo, Wistar rats. Conditions: test according to Shay, result in words. The procedure: The influence of the compounds on the gastric acid secretion was examined on starved Wistar rats of both sexes weighing 180 to 240 g each by using Shay's method (H. Shay et al., Gastroenterology, 5 [1945], 45). The compounds to be tested were given, perorally, 3 hours before the ligation of the pylorus. Four hours after the operation, the animals were killed by an overdose of ether, the stomach was excised, the stomach content was centrifuged and the free hydrochloric acid content of the gastric juice was determined by titration in the presence of Töpfer's reagent. The percentage of inhibition and then the ED50 values were determined by calculating average values for the groups and comparing those to the average values for the control group.

Another data set deals with Helicobacter pylori. Description: Antibacterial effect on Helicobacter pylori (MIC on blood agar). As to conditions: for MIC: Helicobacter pylori, 72 h, 37°C. The data set is classed as cell-based. The procedure: Helicobacter pylori strains used in these experiments were obtained from the biopsial samples of the stomachs of patients suffering from ulcerative diseases of the gastrointestinal system. From the pure culture of isolates a thick suspension was prepared with cysteine-inositol solution suitable for lyophilisation, and the suspension obtained was maintained in cold-resistant plastic ampoules in a deep-freezing chamber at a temperature of about -196°C. For the determination of the inhibitory effect of the compounds tested on Helicobacter pylori, blood agar containing 10 mg/litre of a stereoisomer of 23-[aminocarbonyl]-12-[{2-0-(3-amino-2,3,6-trideoxy-3-C-methyl-α-L-lyxo-hexopyranosyl)-β-D-glucopyranosyl}-oxy]-8,16-di-[chloro]-2,3,4,5,19,20,21,22,23,24,25,26,27,28,29,30-hexa-[decahydro]-5,19,34,36,38-penta-[hydroxy]-28-[{4-(methyl)-2-(methylamino)-1-(oxo)-pentyl}-amino]-3,21,25,28,41-penta-[oxo]-1H-6,9:15,18-[dietheno]-4,30-[iminomethano]-31,35-[metheno]-11,27,13-[[1]-propene[1,2]diyl[3]ylidene]-13H-10,14,2,22,26,29-benzodioxatetraazacycloheptatriacontine-1-carboxylic acid 〈vancomycin〉 and 25 mg/litre of [1R-(1R^x,3S^x,5R^x,6R^x,9R^x,11R^x,15S^x,16R^x,17R^x,18S^x,19E,21E,23E,25E,27E,29E,31E,33R^x,35S^x,36R^x,37S^x)]-33-[{3-(amino)-3,6-di-(deoxy)-β-D-mannopyranosyl}-oxy]-1,3,5,6,9,11,17,37-octa-[hydroxy]-15,16,18-tri-[methyl]-13-[oxo]-14,39-di-[oxa]-bicyclo-[33.3.1]-nonatriaconta-19,21,23,25,27,29,31-heptaene-36-carboxylic acid 〈amphotericin B〉 was used (C. A. M. McNulty and I. C. Dent: Susceptibility of clinical isolates of Campylobacter pylori to twenty one antimicrobial agents. Book of Abstracts, 4th European Congress of Clinical Microbiology, Nice [1989]).
The plates containing the strains were cultivated at 37°C for 72 hours under a gaseous atmosphere containing 10% of carbon dioxide and 5% of oxygen (D. M. Jones et al., J. Clin. Pathol., 37 [1984], 1 002).
The culture media were inoculated with a dilution of the broth culture of the strains grown overnight or with a suspension prepared from a culture obtained on a solid medium. About 10^5 of germs were applied to the surface of each plate.
A series of dilution were prepared from the compound to be tested. The MIC (minimal inhibiting concentration) value of the compounds tested was considered to be the lowest concentration inhibiting the growth of the test organism completely. The results obtained for (R,S)-2-(E)-[4'-(chloro)-phenylmethylene]-1-(E)-[3''-(hexylamino)-2''-(hydroxy)-propoxy-imino]-cyclohexane and colloidal bismuth subcitrate used as reference are given in Table IVa.

Values after ≈ are worked out from the molar mass of the structure shown.

Turning to `CCCCCCNCC(O)CO/N=C1\CCCC\C1=C/c1ccccc1` (racemic) [(R,S)-2-(E)-[Phenylmethylene]-1-(E)-[3'-(hexylamino)-2'-(hydroxy)-propoxy-imino]-cyclohexane], in data set [1], the “Inhibition of the erosion frequency Relative activity” value was found to be 7.4, the “Inhibition of the erosion index Relative activity” value is given as 1.9, the ED50 was determined as 25.7 mg/kg and the “Inhibition of the erosion index ED50 p.o.” value is 11.5 mg/kg. In data set [2], this compound showed a median lethal dose (LD50) at 168 h above 1000 mg/kg. Besides, the “Relative activity related to the inhibition of the free acid” value in data set [3] was “about 250.0”.
With `CC(C)N(CC(O)CO/N=C1\CCCC\C1=C/c1ccc(Br)cc1)C(C)C` (racemic) [(R,S)-2-(E)-[4'-(Bromo)-phenylmethylene]-1-(E)-[3''-(diisopropylamino)-2''-(hydroxy)-propoxy-imino]-cyclohexane], in data set [1], the “Inhibition of the erosion frequency Relative activity” value is 9.9, the “Inhibition of the erosion index Relative activity” value is 3.7, the ED50 came to 19.1 mg/kg and the “Inhibition of the erosion index ED50 p.o.” value is 5.9 mg/kg. Further, in data set [2], the LD50 at 168 h was determined as 1000 mg/kg. Further, in data set [3], the “Relative activity related to the inhibition of the free acid” value is “about 25.0”.
In data set [2], `CN(CC(O)CO/N=C1\CCCC\C1=C/c1ccc(Cl)cc1)C1CCCCC1` (racemic) [(R,S)-2-(E)-[4'-(Chloro)-phenylmethylene]-1-(E)-[3''-{N-(methyl)-N-(cyclohexyl)-amino}-2''-(hydroxy)-propoxy-imino]-cyclohexane] registered a 50% lethal dose (LD50) at 168 h above 1000 mg/kg.
`COc1ccc2[nH]c([S+]([O-])Cc3ncc(C)c(OC)c3C)nc2c1` (stereo not shown) [omeprazole, 5-[Methoxy]-2-[{4-(methoxy)-3,5-di-(methyl)-2-pyridyl}-methylsulfinyl]-benzimidazole, reference compound] showed an LD50 at 7 days in data set [2] above 4000 mg/kg.
Take `NC[C@H]1CC[C@H](C(=O)Oc2ccc(CCC(=O)O)cc2)CC1` [cetraxate, 3-[4-{Trans-4-(aminomethyl)-cyclohexylcarbonyloxy}-phenyl]-propionic acid, reference compound]: in data set [1], the “Inhibition of the erosion frequency Relative activity” value was determined as 1.0, the “Inhibition of the erosion index Relative activity” value was determined as 1.0, the ED50 amounted to 189 mg/kg and the “Inhibition of the erosion index ED50 p.o.” value worked out at 22.0 mg/kg. Also, the “gastric acid secretion inhibition” value with gastric acid secretion was “only a moderate gastric acid secretion inhibition”. The same compound showed an LD50 at 7 days in data set [2] above 1000 mg/kg. Moreover, the “activity in the test with absolute ethanol” value in data set [3] is on record as “nearly identical low activity”.
Consider `CN(C)CC(O)CO/N=C1\CCCC\C1=C/c1ccc(Cl)cc1` (racemic) [(R,S)-2-(E)-[4'-(Chloro)-phenylmethylene]-1-(E)-[3''-(dimethylamino)-2''-(hydroxy)-propoxy-imino]-cyclohexane], for which, in data set [1], the “Inhibition of the erosion index Relative activity” value is 1.4, the ED50 was in the range of 30 to 60 mg/kg and the “Inhibition of the erosion index ED50 p.o.” value stood at 15.8 mg/kg. This compound also yielded an LD50 at 168 h in data set [2] above 1000 mg/kg.
`OC(CNC1CCCCC1)CO/N=C1\CCCC\C1=C/c1ccc(Cl)cc1` (racemic) [(R,S)-2-(E)-[4'-(Chloro)-phenylmethylene]-1-(E)-[3''-(cyclohexylamino)-2''-(hydroxy)-propoxy-imino]-cyclohexane]: in data set [1], the “Inhibition of the erosion index Relative activity” value is given as 2.1, the ED50 lay within 30 to 60 mg/kg and the “Inhibition of the erosion index ED50 p.o.” value stood at 10.3 mg/kg. For the same compound, in data set [2], the LD50 at 168 h is above 1000 mg/kg. Moreover, in data set [3], the “Relative activity related to the inhibition of the free acid” value is reported as 30.0.
On to “the basic aluminum salt of saccharose hydrogen sulfate [sucralfate, reference compound]”, for which, in data set [3], the “activity in the test with absolute ethanol” value is on record as “nearly identical low activity”.
As for `CCCCCCNCC(O)CO/N=C1\CCCC\C1=C/c1ccc(Cl)cc1` (racemic) [(R,S)-2-(E)-[4'-(Chloro)-phenylmethylene]-1-(E)-[3''-(hexylamino)-2''-(hydroxy)-propoxy-imino]-cyclohexane], in data set [1], the “Inhibition of the erosion frequency Relative activity” value is 7.5. In addition, in data set [1], the “Inhibition of the erosion index Relative activity” value is given as 3.1. Further, the ED50 in data set [1] turned out to be 25.2 mg/kg. Also, in data set [1], the “Inhibition of the erosion index ED50 p.o.” value amounted to 7.2 mg/kg. Also, the LD50 at 168 h in data set [2] is above 1000 mg/kg. The “Relative activity related to the inhibition of the free acid” value in data set [3] is listed as 25.0. In addition, the MIC was determined as 1.9 µg/mL (≈ 4.83 µM) in the data set on Helicobacter pylori (Helicobacter pylori strain 867/90); 0.9 µg/mL (≈ 2.29 µM) with Helicobacter pylori (Helicobacter pylori strain 1596); 1.9 µg/mL (≈ 4.83 µM) against Helicobacter pylori (Helicobacter pylori strain 3842); 1.9 µg/mL (≈ 4.83 µM) against Helicobacter pylori (Helicobacter pylori strain 6656); 1.9 µg/mL (≈ 4.83 µM) with Helicobacter pylori (Helicobacter pylori strain 6709). For the same compound, in the data set with Helicobacter pylori (compared with colloidal bismuth subcitrate, result in words), the “effectiveness against Helicobacter pylori” value is listed as “substantially more effective in the test than the colloidal bismuth subcitrate”.
